These are literature values, as cited in US11798661B2, “Methods for lowering blood pressure with a dihydropyridine-type calcium channel blocker pharmaceutical composition” (A[…] Limited, priority 2018, dated 2023).

The conditions of this data set: co-administration of 240 mL grapefruit juice with a single oral dose of amlodipine 10 mg.

In the case of `CCOC(=O)C1=C(COCCN)NC(C)=C(C(=O)OC)C1c1ccccc1Cl` (racemic) [amlodipine, (RS)-3-ethyl 5-methyl 2-[(2-aminoethoxy)methyl]-4-(2-chlorophenyl)-6-methyl-1,4-dihydropyridine-3,5-dicarboxylate], the “effect on the pharmacokinetics of amlodipine” value is on record as “no significant effect”.
